# Test results from patent publication US20240368156A1, “2-AZABICYCLO[2.2.1]HEPTANE KRAS INHIBITORS” (INCYTE CORPORATION, priority 2023, published 2024).
# pIC50: −log10 of the molar value.
# Tests used:
# KRAS G12D = KRAS G12D (Homo sapiens, UniProt P01116, G12D); assay: GDP-GTP exchange assay (bodipy-GDP/GppNHp, SOS1), KRAS G12D; assay type: biochemical; details: 2.5 nM bodipy-loaded KRAS G12D, 4 h pre-incubation, 2 h reaction with GppNHp and SOS1; for certain compounds the most potent isomer is quoted; read-out: KRAS_G12D exchange assay IC50
# Method: (§1) The inhibitor potency of the exemplified compounds was determined in a fluorescence based guanine nucleotide exchange assay, which measures the exchange of bodipy-GDP (fluorescently labeled GDP) for GppNHp (Non-hydrolyzable GTP analog) to generate the active state of KRAS in the presence of SOS1 (guanine nucleotide exchange factor). Inhibitors were serially diluted in DMSO and a volume of 0.1 μL was transferred to the wells of a black low volume 384-well plate. 5 µL/well volume of bodipy-loaded KRAS G12D diluted to 2.5 nM in assay buffer (25 mM Hepes pH 7.5, 50 mM NaCl, 10 mM MgCl2 and 0.01% Brij-35) was added to the plate and pre-incubated with inhibitor for 4 h at r.t. Appropriate controls (enzyme with no inhibitor or with a G12D inhibitor) were included on the plate. The exchange was initiated by the addition of a 5 μL/well volume containing 1 mM GppNHp and 300 nM SOS1 in assay buffer. The 10 μL/well reaction concentration of the bodipy-loaded KRAS G12D, GppNHp, and SOS1 were 2.5 nM, 500 μM, and 150 nM, respectively. The reaction plates were incubated at r.t. for 2 h, a time estimated for complete GDP-GTP exchange in the absence of inhibitor. For the KRAS G12V mutant, similar guanine nucleotide exchange assays were used with 2.5 nM as final concentration for the bodipy loaded KRAS proteins and 3 h incubation after adding GppNHp-SOS1 mixture. A cyclic peptide described to selectively bind G12D mutant (Sakamoto et al., BBRC 484.3 (2017), 605-611) or internal compounds with confirmed binding were used as positive controls in the assay plates. Fluorescence intensities were measured on a PheraStar plate reader instrument (BMG Labtech) with excitation at 485 nm and emission at 520 nm.
# (§2) Either GraphPad prism or Genedata Screener SmartFit was used to analyze the data. The IC50 values were derived by fitting the data to a four parameter logistic equation producing a sigmoidal dose-response curve with a variable Hill coefficient.
# (§3) The symbol “†” indicates IC50≤100 nM, “††” indicates IC50>100 nM but ≤1 μM; and “†††” indicates IC50 is >1 μM but ≤5 μM, “††††” indicates IC50 is >5 µM but ≤10 μM. “NA” indicates IC50 not available.
# KRAS G12V = KRAS G12V (Homo sapiens, UniProt P01116, G12V); assay: GDP-GTP exchange assay (bodipy-GDP/GppNHp, SOS1), KRAS G12V; assay type: biochemical; details: 2.5 nM bodipy-loaded KRAS G12V, 3 h incubation after adding GppNHp-SOS1; for certain compounds the most potent isomer is quoted; read-out: KRAS_G12V exchange assay IC50
# Method: as §1, §2, §3
# Chain of KRAS G12V (P01116 1-188 isoform P01116-2 G12V): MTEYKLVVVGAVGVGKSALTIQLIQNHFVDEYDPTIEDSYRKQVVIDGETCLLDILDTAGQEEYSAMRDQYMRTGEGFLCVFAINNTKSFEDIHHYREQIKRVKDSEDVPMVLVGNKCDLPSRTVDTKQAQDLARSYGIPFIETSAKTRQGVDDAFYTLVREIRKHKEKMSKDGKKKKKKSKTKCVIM
# Chain of KRAS G12D (P01116 1-188 isoform P01116-2 G12D): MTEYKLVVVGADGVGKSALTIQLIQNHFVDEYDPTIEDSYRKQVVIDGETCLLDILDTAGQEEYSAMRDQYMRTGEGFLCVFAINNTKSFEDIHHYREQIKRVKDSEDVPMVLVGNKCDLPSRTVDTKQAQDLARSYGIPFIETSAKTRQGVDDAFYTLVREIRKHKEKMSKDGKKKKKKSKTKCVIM
pIC50 (KRAS G12D),pIC50 (KRAS G12V),Compound
≥ 7.00,≥ 7.00,"COC(=O)N1[C@@H]2C[C@@H]([C@@H](C(F)F)C2)[C@@H]1c1cc2c(C)nc3c(F)c(-c4cccc(Cl)c4Cl)c(CCC#N)cc3c2n1[C@H]1[C@H]2CN[C@@H]1C2 (atropisomer, axis not shown; (Ra)) [Example 43, Methyl (1R,3R,4S,5S)-3-((Ra)-1-((1R,4R,5S)-2-azabicyclo[2.1.1]hexan-5-yl)-8-(2-cyanoethyl)-7-(2,3-dichlorophenyl)-6-fluoro-4-methyl-1H-pyrrolo[3,2-c]quinolin-2-yl)-5-(difluoromethyl)-2-azabicyclo[2.2.1]heptane-2-carboxylate]"
≥ 7.00,≥ 7.00,"Cc1nc2c(F)c(-c3cccc(Cl)c3Cl)c(CCC#N)cc2c2c1cc([C@H]1[C@H]3C[C@H](C[C@@H]3F)N1C(=O)C1CC1)n2C1[C@H]2CN[C@@H]1C2 (stereo partly drawn) [Example 20, 3-(1-((1R,4R)-2-azabicyclo[2.1.1]hexan-5-yl)-2-((1R,3R,4R,5S)-2-(cyclopropanecarbonyl)-5-fluoro-2-azabicyclo[2.2.1]heptan-3-yl)-7-(2,3-dichlorophenyl)-6-fluoro-4-methyl-1H-pyrrolo[3,2-c]quinolin-8-yl)propanenitrile]"
≥ 7.00,≥ 7.00,"Cc1nc2c(F)c(-c3cccc(Cl)c3Cl)c(CCC#N)cc2c2c1cc([C@H]1[C@H]3C[C@H](C[C@H]3F)N1C(=O)C1CC1)n2C1[C@H]2CN[C@@H]1C2 (stereo partly drawn) [Example 17, 3-(1-((1R,4R)-2-azabicyclo[2.1.1]hexan-5-yl)-2-((1R,3R,4R,5R)-2-(cyclopropanecarbonyl)-5-fluoro-2-azabicyclo[2.2.1]heptan-3-yl)-7-(2,3-dichlorophenyl)-6-fluoro-4-methyl-1H-pyrrolo[3,2-c]quinolin-8-yl)propanenitrile]"
≥ 7.00,≥ 7.00,"Cc1nc2c(F)c(-c3cccc(Cl)c3Cl)c(CCC#N)cc2c2c1cc([C@H]1[C@H]3C[C@H]([C@@H]4C[C@@H]43)N1C(=O)C1CC1)n2C1C2CNC1C2 (stereo partly drawn) [Example 24, 3-(1-(2-azabicyclo[2.1.1]hexan-5-yl)-2-((1S,2S,4R,5R,7R)-6-(cyclopropanecarbonyl)-6-azatricyclo[3.2.1.02,4]octan-7-yl)-7-(2,3-dichlorophenyl)-6-fluoro-4-methyl-1H-pyrrolo[3,2-c]quinolin-8-yl)propanenitrile]"
≥ 7.00,≥ 7.00,"CO[C@H]1C[C@H]2C[C@@H]1[C@H](c1cc3c(C)nc4c(F)c(-c5cccc(Cl)c5Cl)c(CCC#N)cc4c3n1[C@H]1[C@H]3CN[C@@H]1C3)N2C(=O)C1CC1 [Example 15, 3-(1-((1R,4R,5S)-2-azabicyclo[2.1.1]hexan-5-yl)-2-((1R,3R,4R,5S)-2-(cyclopropanecarbonyl)-5-methoxy-2-azabicyclo[2.2.1]heptan-3-yl)-7-(2,3-dichlorophenyl)-6-fluoro-4-methyl-1H-pyrrolo[3,2-c]quinolin-8-yl)propanenitrile]"
≥ 7.00,≥ 7.00,"Cc1nc2c(F)c(-c3cccc(Cl)c3Cl)c(CCC#N)cc2c2c1cc([C@H]1[C@H]3C[C@H](C[C@@H]3Oc3ccccn3)N1C(=O)C1CC1)n2C1[C@H]2CN[C@@H]1C2 (stereo partly drawn) [Example 28, 3-(1-((1R,4R)-2-azabicyclo[2.1.1]hexan-5-yl)-2-((1R,3R,4R,5S)-2-(cyclopropanecarbonyl)-5-(pyridin-2-yloxy)-2-azabicyclo[2.2.1]heptan-3-yl)-7-(2,3-dichlorophenyl)-6-fluoro-4-methyl-1H-pyrrolo[3,2-c]quinolin-8-yl)propanenitrile]"
≥ 7.00,≥ 7.00,"C[C@@H](O)c1nc2c(F)c(-c3cccc(Cl)c3Cl)c(CCC#N)cc2c2c1cc([C@H]1[C@H]3C[C@H](C[C@H]3Cl)N1C(=O)C1(F)CC1)n2[C@H]1[C@H]2CN[C@@H]1C2 (atropisomer, axis not shown) [Example 33, 3-((R)-1-((1R,4R,5S)-2-azabicyclo[2.1.1]hexan-5-yl)-2-((1R,3R,4R,5R)-5-chloro-2-(1-fluorocyclopropane-1-carbonyl)-2-azabicyclo[2.2.1]heptan-3-yl)-7-(2,3-dichlorophenyl)-6-fluoro-4-((R)-1-hydroxyethyl)-1H-pyrrolo[3,2-c]quinolin-8-yl)propanenitrile]"
≥ 7.00,≥ 7.00,"Cc1nc2c(F)c(-c3cccc(Cl)c3Cl)c(CCC#N)cc2c2c1cc([C@H]1[C@H]3C[C@H](C[C@@H]3OC(F)(F)F)N1C(=O)C1CC1)n2[C@H]1[C@H]2CN[C@@H]1C2 (atropisomer, axis not shown; (Ra)) [Example 41, 3-((Ra)-1-((1R,4R,5S)-2-Azabicyclo[2.1.1]hexan-5-yl)-2-((1R,3R,4R,5S)-2-(cyclopropanecarbonyl)-5-(trifluoromethoxy)-2-azabicyclo[2.2.1]heptan-3-yl)-7-(2,3-dichlorophenyl)-6-fluoro-4-methyl-1H-pyrrolo[3,2-c]quinolin-8-yl)propanenitrile]"
≥ 7.00,≥ 7.00,"Cc1nc2c(F)c(-c3cccc(Cl)c3Cl)c(CCC#N)cc2c2c1cc([C@H]1[C@H]3C[C@H](C[C@@H]3Oc3cccnc3)N1C(=O)C1CC1)n2[C@H]1[C@H]2CN[C@@H]1C2 (atropisomer, axis not shown; (Ra)) [Example 5, 3-((Ra)-1-((1R,4R,5S)-2-Azabicyclo[2.1.1]hexan-5-yl)-2-((1R,3R,4R,5S)-2-(cyclopropanecarbonyl)-5-(pyridin-3-yloxy)-2-azabicyclo[2.2.1]heptan-3-yl)-7-(2,3-dichlorophenyl)-6-fluoro-4-methyl-1H-pyrrolo[3,2-c]quinolin-8-yl)propanenitrile]"
≥ 7.00,≥ 7.00,"C[C@@H](O)c1nc2c(F)c(-c3cccc(Cl)c3Cl)c(CCC#N)cc2c2c1cc([C@H]1[C@H]3C[C@H](C[C@@H]3OC(F)F)N1C(=O)C1(F)CC1)n2[C@H]1[C@H]2CN[C@@H]1C2 (single isomer, unassigned) [Example 37]"
5.00 to 5.30,5.00 to 5.30,"Cc1nc2c(F)c(-c3cccc(Cl)c3Cl)c(CCC#N)cc2c2c1cc([C@H]1[C@@H]3C[C@@H]([C@@H]4C[C@@H]43)N1C(=O)C1CC1)n2C1C2CNC1C2 (stereo partly drawn) [Example 26, 3-(1-(2-azabicyclo[2.1.1]hexan-5-yl)-2-((1R,2S,4R,5S,7R)-6-(cyclopropanecarbonyl)-6-azatricyclo[3.2.1.02,4]octan-7-yl)-7-(2,3-dichlorophenyl)-6-fluoro-4-methyl-1H-pyrrolo[3,2-c]quinolin-8-yl)propanenitrile]"
≥ 7.00,≥ 7.00,"Cc1nc2c(F)c(-c3cccc(Cl)c3Cl)c(CCC#N)cc2c2c1cc([C@H]1[C@H]3C[C@H](C[C@@H]3OCc3ccccc3)N1C(=O)C1CC1)n2C1[C@H]2CN[C@@H]1C2 (stereo partly drawn) [Example 29, 3-(2-((1R,3R,4R,5S)-5-(benzyloxy)-2-(cyclopropanecarbonyl)-2-azabicyclo[2.2.1]heptan-3-yl)-1-((1R,4R)-2-azabicyclo[2.1.1]hexan-5-yl)-7-(2,3-dichlorophenyl)-6-fluoro-4-methyl-1H-pyrrolo[3,2-c]quinolin-8-yl)propanenitrile]"
≥ 7.00,≥ 7.00,"Cc1nc2c(F)c(-c3cccc(Cl)c3Cl)c(CCC#N)cc2c2c1cc([C@H]1[C@@H]3CC[C@@H](C3)N1C(=O)C1CC1)n2[C@H]1[C@H]2CN[C@@H]1C2 [Example 11, 3-(1-((1R,4R,5S)-2-azabicyclo[2.1.1]hexan-5-yl)-2-((1S,3R,4R)-2-(cyclopropanecarbonyl)-2-azabicyclo[2.2.1]heptan-3-yl)-7-(2,3-dichlorophenyl)-6-fluoro-4-methyl-1H-pyrrolo[3,2-c]quinolin-8-yl)propanenitrile]"
≥ 7.00,≥ 7.00,"Cc1nc2c(F)c(-c3cccc(Cl)c3Cl)c(CCC#N)cc2c2c1cc([C@H]1[C@H]3C[C@H](C[C@@H]3C)N1C(=O)C1CC1)n2C1[C@H]2CN[C@@H]1C2 (stereo partly drawn) [Example 19, 3-(1-((1R,4R)-2-azabicyclo[2.1.1]hexan-5-yl)-2-((1S,3R,4S,5S)-2-(cyclopropanecarbonyl)-5-methyl-2-azabicyclo[2.2.1]heptan-3-yl)-7-(2,3-dichlorophenyl)-6-fluoro-4-methyl-1H-pyrrolo[3,2-c]quinolin-8-yl)propanenitrile]"
